Data published in patent US20150175530A1, “ANTIBACTERIAL AGENTS” (priority 2012, published 2015).
Converted amounts (≈) assume the structure as drawn. Where two headings read alike, the source gives them in different places.

Assays:
[1] = system: bacterial isolates (clinical isolates and ATCC quality control strains); experiment: Minimum Inhibitory Concentrations (MICs) by broth microdilution (CLSI susceptibility testing); type: cell-based
Method: Bacterial isolates were cultivated from −70° C. frozen stocks by overnight passages at 35° C. in ambient air on Mueller-Hinton agar (Beckton Dickinson, Franklin Lakes, N.J.). Clinical isolates tested were obtained from various geographically diverse hospitals in the US and abroad (Focus Diagnostics, Herndon, Va. and JMI, North Liberty, Iowa). Quality control strains were from the American Type Culture Collection (ATCC; Rockville, Md.).
Minimum Inhibitory Concentrations (MICs) were determined by the broth microdilution method in accordance with the Clinical and Laboratory Standards Institute (CLSI) guidelines. In brief, organism suspensions were adjusted to a 0.5 McFarland standard to yield a final inoculum between 3×10^5 and 7×10^5 colony-forming units (CFU)/mL. Drug dilutions and inocula were made in sterile, cation adjusted Mueller-Hinton Broth (Beckton Dickinson). An inoculum volume of 100 μL was added to wells containing 100 μL of broth with 2-fold serial dilutions of drug. All inoculated microdilution trays were incubated in ambient air at 35° C. for 18-24 h. Following incubation, the lowest concentration of the drug that prevented visible growth (OD600 nm<0.05) was recorded as the MIC. Performance of the assay was monitored by the use of laboratory quality-control strains and levofloxacin, a compound with a defined MIC spectrum, in accordance with CLSI guidelines.

[2] = system: 3 P. aeruginosa strains (APAE001, APAE002, APAE006); experiment: Protein binding: fold change in MIC in the presence of 2% HSA and 0.05% AGP, Geomean of 3 strains; type: cell-based, Pseudomonas aeruginosa; conditions: MIC in the presence of 2% HSA and 0.05% AGP divided by MIC in the absence; Geomean of 3 P. aeruginosa strains (APAE001, APAE002, APAE006)
Method: The effect of human serum albumin (HSA) and α-1-acid glycoprotein (AGP) from human plasma, which are known to nonspecifically bind to certain antibiotics and thereby reduce their activity (Banéres-Roquet et al. 2009 “Use of a Surface Plasmon Resonance Method to Investigate Antibiotic and Plasma Protein Interactions” Antimicrob. Agents and Chemother. 53(4):1528-1531), was assessed against 3 P. aeruginosa strains (APAE001, APAE002, APAE006). APAE001 is Pseudomonas aeruginosa ATCC27853; APAE002 is a wildtype lab strain of Pseudomonas aeruginosa known as PAM1020 or PA01. APAE006 is a strain of […]/PA01 with efflux deletions: delta mexAB-oprM::CM delta CD-oprJ::Gm delta mexEF-oprN::omega Hg. Lomovskaya, 0 et al. 1999. Use of a Genetic Approach To Evaluate the Consequences of Inhibition of Efflux Pumps in P aeruginosa. Antimicrob. Agents Chemother. 43: 1340-1346.
The standard procedure described in Susceptibility Testing was utilized with one adjustment, specifically 2% HSA and 0.05% AGP were added to the cation adjusted Mueller-Hinton Broth. The MIC for each strain of interest was then assessed in the presence and absence of HSA/AGP. Following MIC determination, the fold change in MIC was determined for each individual strain by dividing the MIC in the presence of HSA/AGP by the MIC in the absence of HSA/AGP. The protein binding Geomean was then calculated using these 3 values.

[3] = APAE1096 is a clinical isolate, broth microdilution, read-out: Minimum Inhibitory Concentrations (MICs) APAE1096
[4] = Pseudomonas aeruginosa, APAE002 is a wildtype lab strain of Pseudomonas aeruginosa known as PAM1020 or PA01, broth microdilution, read-out: Minimum Inhibitory Concentrations (MICs) APAE002
[5] = Pseudomonas aeruginosa, ATCC27853, APAE001 is Pseudomonas aeruginosa ATCC27853, broth microdilution, read-out: Minimum Inhibitory Concentrations (MICs) APAE001
[6] = Pseudomonas aeruginosa, ATCC27853, read-out: Minimum Inhibitory Concentrations (MICs) APAE001
[7] = Pseudomonas aeruginosa, read-out: Minimum Inhibitory Concentrations (MICs) APAE002
[8] = read-out: Minimum Inhibitory Concentrations (MICs) APAE1096

Structure (SMILES)	MIC [1, 3] [µg/mL]	MIC [1, 4] [µg/mL]	MIC [1, 5] [µg/mL]	Protein Binding PB (Geomean of fold change in MIC) [2]	Minimum Inhibitory Concentrations (MICs) APAE001 ([1]; APAE001 is Pseudomonas aeruginosa ATCC27853, broth microdilution)	Minimum Inhibitory Concentrations (MICs) APAE002 ([1]; APAE002 is a wildtype lab strain of Pseudomonas aeruginosa known as PAM1020 or PA01, broth microdilution)	Minimum Inhibitory Concentrations (MICs) APAE1096 ([1]; APAE1096 is a clinical isolate, broth microdilution)	MIC [1, 6] [µg/mL]	MIC [1, 7] [µg/mL]	MIC [1, 8] [µg/mL]
Cc1cc(CNC(C)(C)[C@H](NC(=O)c2ccc(C#CC#CCCO)cc2)C(=O)NO)no1 [Compound 12, (S)—N-(1-(hydroxyamino)-3-methyl-3-((5-methylisoxazol-3-yl)methylamino)-1-oxobutan-2-yl)-4-(6-hydroxyhexa-1,3-diynyl)benzamide]	8 to 16 (≈ 18.2 to 36.5 µM)	1 to 8 (≈ 2.28 to 18.2 µM)	1 to 8 (≈ 2.28 to 18.2 µM)	2.9	–	–	–	–	–	–
CC(C)(N)[C@H](NC(=O)c1ccc(C#CC#C[C@@H]2C[C@@H](O)[C@@H](O)C2)cc1)C(=O)NO [Compound 32, N—((S)-3-amino-1-(hydroxyamino)-3-methyl-1-oxobutan-2-yl)-4-(((1S,3R,4S)-3,4-dihydroxycyclopentyl)buta-1,3-diynyl)benzamide]	1 to 8 (≈ 2.5 to 20 µM)	< 1	< 1	5.5	–	–	–	–	–	–
CC(C)(N)[C@H](NC(=O)c1ccc(C#CC#CC2CC(O)[C@H]2CO)cc1)C(=O)NO (single isomer, unassigned) [Compound 31B]	–	–	–	3.2	A (A = MIC's of 1.0 μg/mL or less)	A (A = MIC's of 1.0 μg/mL or less)	B (B = MIC's of greater than 1.0 μg/mL to 8.0 μg/mL)	–	–	–
CC(C)(N)[C@H](NC(=O)c1ccc(C#CC#C[C@H]2C[C@@](O)(CO)C2)cc1)C(=O)NO [Compound 29, N—((S)-3-amino-1-(hydroxyamino)-3-methyl-1-oxobutan-2-yl)-4-(((1R,3S)-3-hydroxy-3-(hydroxymethyl)cyclobutyl)buta-1,3-diynyl)benzamide]	1 to 8 (≈ 2.5 to 20 µM)	< 1	< 1	2.9	–	–	–	–	–	–
CC(C)(N)[C@H](NC(=O)c1ccc(C#CC#C[C@@H](O)CO)cc1)C(=O)NO [Compound 62, N—((S)-3-amino-1-(hydroxyamino)-3-methyl-1-oxobutan-2-yl)-4-((R)-5,6-dihydroxyhexa-1,3-diyn-1-yl)benzamide]	1 to 8 (≈ 2.78 to 22.3 µM)	< 1	< 1	2.0	–	–	–	–	–	–
CC(C)(N)[C@H](NC(=O)c1ccc(C#CC#CCCO)cc1)C(=O)NO [Compound 7, (S)—N-(3-amino-1-(hydroxyamino)-3-methyl-1-oxobutan-2-yl)-4-(6-hydroxyhexa-1,3-diynyl)benzamide]	< 1	< 1	< 1	2.5	–	–	–	–	–	–
CC(C)(N)[C@H](NC(=O)c1ccc(C#C/C=C/C(O)CO)cc1)C(=O)NO (stereo partly drawn) [Compound 58, N—((S)-3-amino-1-(hydroxyamino)-3-methyl-1-oxobutan-2-yl)-4-((E)-5,6-dihydroxyhex-3-en-1-yn-1-yl)benzamide]	8 to 16 (≈ 22.1 to 44.3 µM)	1 to 8 (≈ 2.77 to 22.1 µM)	1 to 8 (≈ 2.77 to 22.1 µM)	1.0	–	–	–	–	–	–
C[C@@H](N)[C@H](NC(=O)c1ccc(C#CC#CCCO)cc1)C(=O)NO [Compound 35, N-((2S,3R)-3-amino-1-(hydroxyamino)-1-oxobutan-2-yl)-4-(6-hydroxyhexa-1,3-diyn-1-yl)benzamide]	1 to 8 (≈ 3.04 to 24.3 µM)	< 1	< 1	2.0	–	–	–	–	–	–
CC(C)(N)[C@H](NC(=O)c1ccc(C#CC#CC[C@H](O)CO)cc1)C(=O)NO [Compound 36, N—((S)-3-amino-1-(hydroxyamino)-3-methyl-1-oxobutan-2-yl)-4-((S)-6,7-dihydroxyhepta-1,3-diyn-1-yl)benzamide]	–	–	–	2.3	–	–	–	< 1	< 1	1 to 8 (≈ 2.68 to 21.4 µM)
CC(C)(N)[C@H](NC(=O)c1ccc(C#CC#C[C@H]2CC[C@](O)(CO)CC2)cc1)C(=O)NO [Compound 33B, N—((S)-3-amino-1-(hydroxyamino)-3-methyl-1-oxobutan-2-yl)-4-(((1R,4S)-4-hydroxy-4-(hydroxymethyl)cyclohexyl)buta-1,3-diynyl)benzamide]	1 to 8 (≈ 2.34 to 18.7 µM)	1 to 8 (≈ 2.34 to 18.7 µM)	< 1	5.1	–	–	–	–	–	–
CC(C)(N)[C@H](NC(=O)c1ccc(C#CC#CC[C@]2(O)C[C@@H](CO)C2)cc1)C(=O)NO [Compound 28, N—((S)-3-amino-1-(hydroxyamino)-3-methyl-1-oxobutan-2-yl)-4-(5-((1S,3S)-1-hydroxy-3-(hydroxymethyl)cyclobutyl)penta-1,3-diyn-1-yl)benzamide]	> 16	1 to 8 (≈ 2.42 to 19.3 µM)	1 to 8 (≈ 2.42 to 19.3 µM)	1.3	–	–	–	–	–	–
CC(C)(N)[C@H](NC(=O)c1ccc(C#CC#CC2C[C@H]2C(O)CO)cc1)C(=O)NO (mixture of isomers) [Compound 25, N—((S)-3-amino-1-(hydroxyamino)-3-methyl-1-oxobutan-2-yl)-4-((2-(1,2-dihydroxyethyl)cyclopropyl)buta-1,3-diynyl)benzamide]	1 to 8 (≈ 2.5 to 20 µM)	< 1	< 1	11.5	–	–	–	–	–	–
CC(C)(N)[C@H](NC(=O)c1ccc(C#CC#CC(O)CO)cc1)C(=O)NO (stereo partly drawn) [Compound 17, N—((S)-3-amino-1-(hydroxyamino)-3-methyl-1-oxobutan-2-yl)-4-(5,6-dihydroxyhexa-1,3-diynyl)benzamide]	–	–	–	1.5	–	–	–	1 to 8 (≈ 2.78 to 22.3 µM)	1 to 8 (≈ 2.78 to 22.3 µM)	8 to 16 (≈ 22.3 to 44.5 µM)
CNC(C)(C)[C@H](NC(=O)c1ccc(C#CC#CC(O)CO)cc1)C(=O)NO (stereo partly drawn) [Compound 51, 4-(5,6-dihydroxyhexa-1,3-diyn-1-yl)-N—((S)-1-(hydroxyamino)-3-methyl-3-(methylamino)-1-oxobutan-2-yl)benzamide]	1 to 8 (≈ 2.68 to 21.4 µM)	< 1	< 1	1.6	–	–	–	–	–	–
CC(C)(N)[C@H](NC(=O)c1ccc(C#CC#CC[C@@H](O)CO)cc1)C(=O)NO [Compound 37, N—((S)-3-amino-1-(hydroxyamino)-3-methyl-1-oxobutan-2-yl)-4-((R)-6,7-dihydroxyhepta-1,3-diyn-1-yl)benzamide]	–	–	–	1.4	–	–	–	1 to 8 (≈ 2.68 to 21.4 µM)	1 to 8 (≈ 2.68 to 21.4 µM)	1 to 8 (≈ 2.68 to 21.4 µM)
CNC(C)(C)[C@H](NC(=O)c1ccc(C#CC#CCC(O)CO)cc1)C(=O)NO (stereo partly drawn) [Compound 22, 4-(6,7-dihydroxyhepta-1,3-diynyl)-N—((S)-1-(hydroxyamino)-3-methyl-3-(methylamino)-1-oxobutan-2-yl)benzamide]	1 to 8 (≈ 2.58 to 20.6 µM)	< 1	< 1	1.6	–	–	–	–	–	–
CC(C)(N)[C@H](NC(=O)c1ccc(C#CCCO)cc1)C(=O)NO [Compound 8, (S)—N-(3-amino-1-(hydroxyamino)-3-methyl-1-oxobutan-2-yl)-4-(4-hydroxybut-1-ynyl)benzamide]	8 to 16 (≈ 25.1 to 50.1 µM)	1 to 8 (≈ 3.13 to 25.1 µM)	1 to 8 (≈ 3.13 to 25.1 µM)	0.9	–	–	–	–	–	–
CC(C)(NCCO)[C@H](NC(=O)c1ccc(C#CC#CCCO)cc1)C(=O)NO [Compound 11, (S)—N-(1-(hydroxyamino)-3-(2-hydroxyethylamino)-3-methyl-1-oxobutan-2-yl)-4-(6-hydroxyhexa-1,3-diynyl)benzamide]	1 to 8 (≈ 2.58 to 20.6 µM)	< 1	< 1	1.5	–	–	–	–	–	–
